Data from article PMC10945555, “Improving Activity of New Arylurea Agents against Multidrug-Resistant and Biofilm-Producing Staphylococcus epidermidis” (ACS Medicinal Chemistry Letters, 2024).
≈ marks a conversion by molar mass, not a printed value. Read-outs that look alike come from different tables or passages of the source.

How the values were obtained:
Assay type in all cases: cell-based
[1] = test system: Staphylococcus epidermidis ATCC 35984; assay: MIC, broth microdilution, MDR/BPSE reference strain; conditions: Staphylococcus epidermidis, ATCC35984, read-out: MIC MDR/BPSE, Staphylococcus epidermidis ATCC 35984
Source text: These strains included susceptible, multidrug-resistant, and biofilm-producing strains of S. epidermidis and S. aureus (MSSE, MDR/BPSE, and MDR/BPSA, respectively). The cornerstone antibiotic linezolid served as a positive control (Table 1). The impact of structural modifications at the aryloxy fragment and the aromatic moiety bound to the propyl linker on the inhibitory activity was initially investigated. […] Further optimization focused on evaluating the impact of the type of substituent and its position on the arylsulfonamide fragment’s activity.
(§1) 2 Biological assay protocols
(§2) Microbiological tests were carried out under aseptic conditions in a laminar chamber of the 2nd […]
(§3) (BioTectum 1.2, Alchem Poland). The assessment of antimicrobial activity was carried out for final compounds in the form of free bases, soluble in DMSO (Merck, Germany), at the initial […]
(§4) concentration of 1 mg/mL. […]
were provided by Cayman Chemical, USA.
The activity of all newly synthesized compounds was tested in vitro on a panel of selected reference strains from the American Type Culture Collection (ATCC) of Gram-positive […]
(§5) 2.2 Effect of evaluated compounds on planktonic cells
(§6) The susceptibility of three reference bacterial strains (Staphylococcus epidermidis ATCC […]
(§7) Table S1) and 81 clinical MDR S. epidermidis (Table S2) to the tested compounds was assessed by determining the MIC value (Minimal Inhibitory Concentration) by microdilution in a liquid medium in 96-well flat-bottom cell culture plates (Nest Biotechnology Scientific, USA). The antibacterial properties of the compo unds were tested in the concentration range from 50 µg/mL to 0.1 µg/mL by making a series of double dilutions of the compound in liquid Mueller -Hinton II Broth Cation Adjusted (MHB II, BBL TM, USA) according to the European Committee on […]
(§8) Antimicrobial Susceptibility Testing guidelines (EUCAST).2,3 The determinations were performed twice. The MIC50 and MIC90 values were determined for each of the tested

[2] = test system: clinical MDR Staphylococcus epidermidis isolates; assay: MIC, broth microdilution, 81 clinical MDR strains; conditions: Staphylococcus epidermidis
Method: as §1, §2, §3, §4
were provided by Cayman Chemical, USA. […]
The antibacterial activity of selected compounds was also tested on a panel of 81 unrelated, multidrug -resistant clinical strains of Staphylococcus epidermidis from the own collection of the Department of Pharmaceutical Microbiology of the Jagiellonian University Medical College.
as §5, §6, §7, §8

[3] = test system: Staphylococcus aureus ATCC BAA-976; assay: MIC, broth microdilution, MDR/BPSA reference strain; conditions: ATCCBAA976; Staphylococcus aureus ATCC BAA-976; read-out: MIC MDR/BPSA
Method in brief: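 Compounds tested as free bases dissolved in DMSO (1 mg/mL stock); determinations done twice; linezolid as positive control.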

O=S(=O)(NC1CCN(CCC(Oc2ccc(C(F)(F)F)cc2)c2cccs2)CC1)c1cccc(Cl)c1 (centres unmarked) [Compound 14]
MIC [1]: ≤ 0.8 µg/mL | MIC ([2]; clinical strain 1 (Table S2), read-out: MIC): 0.1 µg/mL (≈ 0.179 µM) | MIC ([2]; clinical strain 2 (Table S2), read-out: MIC): 0.4 µg/mL (≈ 0.715 µM) | MIC ([2]; clinical strain 3 (Table S2), read-out: MIC): 0.8 µg/mL (≈ 1.43 µM) | MIC ([2]; clinical strain 4 (Table S2), read-out: MIC): 1.6 µg/mL (≈ 2.86 µM) | MIC ([2]; clinical strain 5 (Table S2), read-out: MIC): 3.12 µg/mL (≈ 5.59 µM) | MIC ([2]; clinical strain 6 (Table S2), read-out: MIC): 0.8 µg/mL (≈ 1.43 µM) | MIC ([2]; clinical strain 7 (Table S2), read-out: MIC): 3.12 µg/mL (≈ 5.59 µM) | MIC ([2]; clinical strain 8 (Table S2), read-out: MIC): 1.6 µg/mL (≈ 2.86 µM) | MIC ([2]; clinical strain 9 (Table S2), read-out: MIC): 1.6 µg/mL (≈ 2.86 µM) | MIC ([2]; clinical strain 10 (Table S2), read-out: MIC): 3.12 µg/mL (≈ 5.59 µM) | MIC ([2]; clinical strain 11 (Table S2), read-out: MIC): 3.12 µg/mL (≈ 5.59 µM) | MIC ([2]; clinical strain 12 (Table S2), read-out: MIC): 6.25 µg/mL (≈ 11.2 µM) | MIC ([2]; clinical strain 13 (Table S2), read-out: MIC): 6.25 µg/mL (≈ 11.2 µM) | MIC ([2]; clinical strain 14 (Table S2), read-out: MIC): 6.25 µg/mL (≈ 11.2 µM) | MIC ([2]; clinical strain 15 (Table S2), read-out: MIC): 1.6 µg/mL (≈ 2.86 µM) | MIC ([2]; clinical strain 16 (Table S2), read-out: MIC): 1.6 µg/mL (≈ 2.86 µM) | MIC ([2]; clinical strain 17 (Table S2), read-out: MIC): 3.12 µg/mL (≈ 5.59 µM) | MIC ([2]; clinical strain 18 (Table S2), read-out: MIC): 3.12 µg/mL (≈ 5.59 µM) | MIC ([2]; clinical strain 19 (Table S2), read-out: MIC): 3.12 µg/mL (≈ 5.59 µM) | MIC ([2]; clinical strain 20 (Table S2), read-out: MIC): 1.6 µg/mL (≈ 2.86 µM) | MIC ([2]; clinical strain 21 (Table S2), read-out: MIC): 3.12 µg/mL (≈ 5.59 µM) | MIC ([2]; clinical strain 22 (Table S2), read-out: MIC): 6.25 µg/mL (≈ 11.2 µM) | MIC ([2]; clinical strain 23 (Table S2), read-out: MIC): 12.5 µg/mL (≈ 22.4 µM) | MIC ([2]; clinical strain 24 (Table S2), read-out: MIC): 6.25 µg/mL (≈ 11.2 µM) | MIC ([2]; clinical strain 25 (Table S2), read-out: MIC): 6.25 µg/mL (≈ 11.2 µM) | MIC ([2]; clinical strain 26 (Table S2), read-out: MIC): 6.25 µg/mL (≈ 11.2 µM) | MIC ([2]; clinical strain 27 (Table S2), read-out: MIC): 3.12 µg/mL (≈ 5.59 µM) | MIC ([2]; clinical strain 28 (Table S2), read-out: MIC): 12.5 µg/mL (≈ 22.4 µM) | MIC ([2]; clinical strain 29 (Table S2), read-out: MIC): 12.5 µg/mL (≈ 22.4 µM) | MIC ([2]; clinical strain 30 (Table S2), read-out: MIC): 12.5 µg/mL (≈ 22.4 µM) | MIC ([2]; clinical strain 31 (Table S2), read-out: MIC): 12.5 µg/mL (≈ 22.4 µM) | MIC ([2]; clinical strain 32 (Table S2), read-out: MIC): 6.25 µg/mL (≈ 11.2 µM) | MIC ([2]; clinical strain 33 (Table S2), read-out: MIC): 3.12 µg/mL (≈ 5.59 µM) | MIC ([2]; clinical strain 34 (Table S2), read-out: MIC): 12.5 µg/mL (≈ 22.4 µM) | MIC ([2]; clinical strain 35 (Table S2), read-out: MIC): 12.5 µg/mL (≈ 22.4 µM) | MIC ([2]; clinical strain 36 (Table S2), read-out: MIC): 50 µg/mL (≈ 89.4 µM) | MIC ([2]; clinical strain 37 (Table S2), read-out: MIC): 12.5 µg/mL (≈ 22.4 µM) | MIC ([2]; clinical strain 38 (Table S2), read-out: MIC): 12.5 µg/mL (≈ 22.4 µM) | MIC ([2]; clinical strain 39 (Table S2), read-out: MIC): 12.5 µg/mL (≈ 22.4 µM) | MIC ([2]; clinical strain 40 (Table S2), read-out: MIC): 25 µg/mL (≈ 44.7 µM) | MIC ([2]; clinical strain 41 (Table S2), read-out: MIC): 25 µg/mL (≈ 44.7 µM) | MIC ([2]; clinical strain 42 (Table S2), read-out: MIC): 12.5 µg/mL (≈ 22.4 µM) | MIC ([2]; clinical strain 43 (Table S2), read-out: MIC): 25 µg/mL (≈ 44.7 µM) | MIC ([2]; clinical strain 44 (Table S2), read-out: MIC): 50 µg/mL (≈ 89.4 µM) | MIC ([2]; clinical strain 45 (Table S2), read-out: MIC): 25 µg/mL (≈ 44.7 µM) | MIC ([2]; clinical strain 46 (Table S2), read-out: MIC): 50 µg/mL (≈ 89.4 µM) | MIC ([2]; clinical strain 47 (Table S2), read-out: MIC): 25 µg/mL (≈ 44.7 µM) | MIC ([2]; clinical strain 48 (Table S2), read-out: MIC): 3.12 µg/mL (≈ 5.59 µM) | MIC ([2]; clinical strain 49 (Table S2), read-out: MIC): 0.1 µg/mL (≈ 0.179 µM) | MIC ([2]; clinical strain 50 (Table S2), read-out: MIC): 50 µg/mL (≈ 89.4 µM) | MIC ([2]; clinical strain 51 (Table S2), read-out: MIC): 50 µg/mL (≈ 89.4 µM) | MIC ([2]; clinical strain 52 (Table S2), read-out: MIC): 3.12 µg/mL (≈ 5.59 µM) | MIC ([2]; clinical strain 53 (Table S2), read-out: MIC): 12.5 µg/mL (≈ 22.4 µM) | MIC ([2]; clinical strain 54 (Table S2), read-out: MIC): 12.5 µg/mL (≈ 22.4 µM) | MIC ([2]; clinical strain 55 (Table S2), read-out: MIC): 50 µg/mL (≈ 89.4 µM) | MIC ([2]; clinical strain 56 (Table S2), read-out: MIC): 3.12 µg/mL (≈ 5.59 µM) | MIC ([2]; clinical strain 57 (Table S2), read-out: MIC): 12.5 µg/mL (≈ 22.4 µM) | MIC ([2]; clinical strain 58 (Table S2), read-out: MIC): 6.25 µg/mL (≈ 11.2 µM) | MIC ([2]; clinical strain 59 (Table S2), read-out: MIC): 50 µg/mL (≈ 89.4 µM) | MIC ([2]; clinical strain 60 (Table S2), read-out: MIC): 3.12 µg/mL (≈ 5.59 µM) | MIC ([2]; clinical strain 61 (Table S2), read-out: MIC): 50 µg/mL (≈ 89.4 µM) | MIC ([2]; clinical strain 62 (Table S2), read-out: MIC): 6.25 µg/mL (≈ 11.2 µM) | MIC ([2]; clinical strain 63 (Table S2), read-out: MIC): 0.4 µg/mL (≈ 0.715 µM) | MIC ([2]; clinical strain 64 (Table S2), read-out: MIC): 6.25 µg/mL (≈ 11.2 µM) | MIC ([2]; clinical strain 65 (Table S2), read-out: MIC): 6.25 µg/mL (≈ 11.2 µM) | MIC ([2]; clinical strain 66 (Table S2), read-out: MIC): 50 µg/mL (≈ 89.4 µM) | MIC ([2]; clinical strain 67 (Table S2), read-out: MIC): 50 µg/mL (≈ 89.4 µM) | MIC ([2]; clinical strain 68 (Table S2), read-out: MIC): 50 µg/mL (≈ 89.4 µM) | MIC ([2]; clinical strain 69 (Table S2), read-out: MIC): 3.12 µg/mL (≈ 5.59 µM) | MIC ([2]; clinical strain 70 (Table S2), read-out: MIC): 50 µg/mL (≈ 89.4 µM) | MIC ([2]; clinical strain 71 (Table S2), read-out: MIC): 50 µg/mL (≈ 89.4 µM) | MIC ([2]; clinical strain 72 (Table S2), read-out: MIC): 3.12 µg/mL (≈ 5.59 µM) | MIC ([2]; clinical strain 73 (Table S2), read-out: MIC): 0.8 µg/mL (≈ 1.43 µM) | MIC ([2]; clinical strain 74 (Table S2), read-out: MIC): 50 µg/mL (≈ 89.4 µM) | MIC ([2]; clinical strain 75 (Table S2), read-out: MIC): 6.25 µg/mL (≈ 11.2 µM) | MIC ([2]; clinical strain 76 (Table S2), read-out: MIC): 3.12 µg/mL (≈ 5.59 µM) | MIC ([2]; clinical strain 77 (Table S2), read-out: MIC): 6.25 µg/mL (≈ 11.2 µM) | MIC ([2]; clinical strain 78 (Table S2), read-out: MIC): 6.25 µg/mL (≈ 11.2 µM) | MIC ([2]; clinical strain 79 (Table S2), read-out: MIC): 6.25 µg/mL (≈ 11.2 µM) | MIC ([2]; clinical strain 80 (Table S2), read-out: MIC): 12.5 µg/mL (≈ 22.4 µM) | MIC ([2]; clinical strain 81 (Table S2), read-out: MIC): 6.25 µg/mL (≈ 11.2 µM) | MIC ([2]; mean of MIC values against clinical MDR-SE isolates, read-out: mean MIC): 10 µg/mL (≈ 17.9 µM) | MIC50 ([2]; 81 clinical strains, concentration inhibiting growth of 50% clinical isolates): 6.25 µg/mL (≈ 11.2 µM) | MIC90 ([2]; 81 clinical strains, concentration inhibiting growth of 90% of clinical isolates): 50 µg/mL (≈ 89.4 µM) | MIC [3]: 12.5 µg/mL (≈ 22.4 µM)
